From PMC11500612, “Differential effects of inosine monophosphate dehydrogenase (IMPDH/GuaB) inhibition in Acinetobacter baumannii and Escherichia coli” (Journal of Bacteriology, 2024)

Columns and labels:
Format in all cases: biochemical
GuaB^Sa = GuaB^Sa (Staphylococcus aureus, UniProt Q2FJM6); assay: NADH production, NAD(P)H-Glo luminescence
Source text: NADH production, NAD(P)H-Glo luminescence on GuaB^Sa

GuaB^Ec = biological target: T1, GuaB^Ec (Escherichia coli, UniProt P0ADG7); assay: NADH production, absorbance at […] nm
T1 sequence (P0ADG7 1-488): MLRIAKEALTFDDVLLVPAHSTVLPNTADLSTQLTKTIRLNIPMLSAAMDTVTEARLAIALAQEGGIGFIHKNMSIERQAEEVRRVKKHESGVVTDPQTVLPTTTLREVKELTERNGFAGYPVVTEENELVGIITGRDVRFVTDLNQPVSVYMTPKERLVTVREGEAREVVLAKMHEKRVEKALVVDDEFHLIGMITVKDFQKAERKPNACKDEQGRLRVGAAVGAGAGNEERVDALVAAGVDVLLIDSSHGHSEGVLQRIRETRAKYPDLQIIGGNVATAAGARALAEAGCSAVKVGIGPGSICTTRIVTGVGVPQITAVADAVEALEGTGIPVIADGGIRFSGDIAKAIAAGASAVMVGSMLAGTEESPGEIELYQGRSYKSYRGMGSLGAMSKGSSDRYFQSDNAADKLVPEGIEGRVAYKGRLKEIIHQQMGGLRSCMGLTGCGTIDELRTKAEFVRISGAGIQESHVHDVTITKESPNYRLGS

hIMPDH2 = biological target: T2, hIMPDH2 (Homo sapiens, UniProt P12268); assay: enzyme inhibition, method not given
T2 construct: gene IMPDH2; not described in the main text
Source text: enzyme inhibition, method not described in main text on hIMPDH2

GuaB^Ab = biological target: T3, GuaB^Ab (Acinetobacter baumannii, UniProt D0CF46); assay: NADH production, NAD(P)H-Glo luminescence
T3 construct: recombinant A. baumannii GuaB
T3 sequence (D0CF46 1-488): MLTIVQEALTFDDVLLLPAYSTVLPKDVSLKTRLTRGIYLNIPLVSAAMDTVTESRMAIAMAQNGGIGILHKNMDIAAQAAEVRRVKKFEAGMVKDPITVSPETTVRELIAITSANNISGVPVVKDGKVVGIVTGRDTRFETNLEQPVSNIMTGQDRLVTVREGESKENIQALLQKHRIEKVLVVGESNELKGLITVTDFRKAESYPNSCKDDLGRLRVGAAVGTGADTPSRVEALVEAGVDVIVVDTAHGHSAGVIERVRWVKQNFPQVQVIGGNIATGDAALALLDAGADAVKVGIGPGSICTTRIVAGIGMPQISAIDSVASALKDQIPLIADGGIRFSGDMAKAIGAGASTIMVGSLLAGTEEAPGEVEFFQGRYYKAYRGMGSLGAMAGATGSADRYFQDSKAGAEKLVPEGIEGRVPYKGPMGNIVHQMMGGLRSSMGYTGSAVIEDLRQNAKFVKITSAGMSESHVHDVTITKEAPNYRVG
Source text: NADH production, NAD(P)H-Glo luminescence on GuaB^Ab

GuaB^Sa, sequence (Q2FJM6 whole entry): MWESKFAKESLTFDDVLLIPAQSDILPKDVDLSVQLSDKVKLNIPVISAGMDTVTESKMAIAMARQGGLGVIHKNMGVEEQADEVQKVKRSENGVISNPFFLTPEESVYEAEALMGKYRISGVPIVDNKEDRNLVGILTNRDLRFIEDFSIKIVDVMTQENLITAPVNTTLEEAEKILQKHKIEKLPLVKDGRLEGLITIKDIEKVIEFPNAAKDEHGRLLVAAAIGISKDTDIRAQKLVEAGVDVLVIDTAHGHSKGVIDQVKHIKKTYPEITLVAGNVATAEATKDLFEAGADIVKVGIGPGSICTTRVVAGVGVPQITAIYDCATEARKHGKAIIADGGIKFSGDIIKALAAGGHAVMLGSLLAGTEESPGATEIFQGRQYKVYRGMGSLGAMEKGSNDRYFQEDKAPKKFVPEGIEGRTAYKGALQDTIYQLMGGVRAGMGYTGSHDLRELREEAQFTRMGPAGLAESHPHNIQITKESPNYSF
T2 sequence (P12268 2-514): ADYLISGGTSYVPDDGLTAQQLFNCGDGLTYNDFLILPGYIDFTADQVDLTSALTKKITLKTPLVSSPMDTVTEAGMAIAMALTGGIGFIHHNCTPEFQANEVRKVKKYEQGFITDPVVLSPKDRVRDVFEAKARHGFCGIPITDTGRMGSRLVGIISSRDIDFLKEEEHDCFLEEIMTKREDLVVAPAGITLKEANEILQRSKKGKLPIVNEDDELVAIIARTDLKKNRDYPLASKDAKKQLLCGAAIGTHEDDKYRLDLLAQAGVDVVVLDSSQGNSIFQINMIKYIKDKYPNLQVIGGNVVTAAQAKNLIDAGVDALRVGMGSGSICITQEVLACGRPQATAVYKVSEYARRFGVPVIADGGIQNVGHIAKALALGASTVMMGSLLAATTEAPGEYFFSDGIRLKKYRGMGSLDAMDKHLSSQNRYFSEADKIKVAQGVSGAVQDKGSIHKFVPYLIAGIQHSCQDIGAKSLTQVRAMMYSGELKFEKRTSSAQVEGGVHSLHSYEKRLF

## C[C@H](Nc1ccc2ncc(CO)cc2c1)C(=O)Nc1ccc(Cl)c(N(C)C)c1 [G2]
GuaB^Sa
  IC50: 3.5 nM
GuaB^Ec
  IC50: 15.8 nM
hIMPDH2
  IC50: > 50 µM
GuaB^Ab
  IC50: 0.666 nM

## C[C@H](Nc1ccc2ncc(CO)cc2c1)C(=O)Nc1ccc(Br)nc1 [G3]
GuaB^Sa
  IC50: 2.45 nM
GuaB^Ec
  IC50: 91 nM
hIMPDH2
  IC50: > 50 µM
GuaB^Ab
  IC50: 0.975 nM

## C[C@H](Nc1ccc(-n2cncn2)cc1)C(=O)Nc1ccc2sc(-c3cc[n+]([O-])cc3)nc2c1 [G4]
GuaB^Sa
  IC50: 0.62 nM
GuaB^Ec
  IC50: 903 nM
hIMPDH2
  IC50: > 50 µM
GuaB^Ab
  IC50: 0.617 nM

## C[C@H](Nc1ccc(-n2cccn2)cc1)C(=O)Nc1ccc2sc(-c3ccncc3)nc2c1 [G5]
GuaB^Sa
  IC50: 0.511 nM
GuaB^Ec
  IC50: 569 nM
hIMPDH2
  IC50: > 50 µM
GuaB^Ab
  IC50: 0.394 nM

## C[C@H](Nc1ccc2ncc(CO)cc2c1)C(=O)Nc1ccc(Cl)c(N2CCOCC2)c1 [G6]
GuaB^Sa
  IC50: 0.801 nM
GuaB^Ec
  IC50: 5.9 nM
hIMPDH2
  IC50: > 50 µM
GuaB^Ab
  IC50: 0.564 nM
